PubChem BioAssay (NCI)
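Here, GI50 denotes the concentration required for 50% inhibition of growth. TGI denotes the concentration required for complete inhibition of growth.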

What was measured:
Experiment in all cases: DTP human tumour cell line panel, 384-well format
SK-MEL-28 melanoma = test system: SK-MEL-28 melanoma
OVCAR-4 ovarian = test system: OVCAR-4 ovarian
HOP-92 NSCLC = test system: HOP-92 NSCLC
HCT-15 colon = test system: HCT-15 colon
COLO 205 colon = test system: COLO 205 colon
M14 melanoma = test system: M14 melanoma
MDA-MB-435 melanoma = test system: MDA-MB-435 melanoma
NCI-H226 lung = test system: NCI-H226 lung
OVCAR-8 ovarian = test system: OVCAR-8 ovarian
NCI-H522 lung = test system: NCI-H522 lung
RXF 393 renal = test system: RXF 393 renal
SNB-19 CNS = test system: SNB-19 CNS
A549 NSCLC = test system: A549 NSCLC
RPMI-8226 leukemia = test system: RPMI-8226 leukemia
MCF7 breast = test system: MCF7 breast
IGROV1 ovarian = test system: IGROV1 ovarian
HS 578T breast = test system: HS 578T breast
UACC-257 melanoma = test system: UACC-257 melanoma
TK-10 renal = test system: TK-10 renal
SW-620 colon = test system: SW-620 colon
ACHN renal = test system: ACHN renal
SK-OV-3 ovarian = test system: SK-OV-3 ovarian
MOLT-4 leukemia = test system: MOLT-4 leukemia
SR leukemia = test system: SR leukemia
HCT-116 colon = test system: HCT-116 colon
OVCAR-3 ovarian = test system: OVCAR-3 ovarian
NCI/ADR-RES ovarian = test system: NCI/ADR-RES ovarian
EKVX NSCLC = test system: EKVX NSCLC
MDA-MB-468 breast = test system: MDA-MB-468 breast
LOX IMVI melanoma = test system: LOX IMVI melanoma
SF-268 CNS = test system: SF-268 CNS
SK-MEL-5 melanoma = test system: SK-MEL-5 melanoma
NCI-H23 lung = test system: NCI-H23 lung
MALME-3M melanoma = test system: MALME-3M melanoma
A498 renal = test system: A498 renal
BT-549 breast = test system: BT-549 breast
NCI-H460 NSCLC = test system: NCI-H460 NSCLC
SNB-75 CNS = test system: SNB-75 CNS
HOP-62 NSCLC = test system: HOP-62 NSCLC
UACC-62 melanoma = test system: UACC-62 melanoma
786-0 renal = test system: 786-0 renal
T-47D breast = test system: T-47D breast
HL-60(TB) leukemia = test system: HL-60(TB) leukemia
SF-539 CNS = test system: SF-539 CNS
HCC-2998 colon = test system: HCC-2998 colon
PC-3 prostate = test system: PC-3 prostate
DU-145 prostate = test system: DU-145 prostate
CCRF-CEM leukemia = test system: CCRF-CEM leukemia
NCI-H322M lung = test system: NCI-H322M lung
CAKI-1 renal = test system: CAKI-1 renal
MDA-MB-231 breast = test system: MDA-MB-231 breast
SN12C renal = test system: SN12C renal
UO-31 renal = test system: UO-31 renal
K-562 leukemia = test system: K-562 leukemia
U251 glioblastoma = test system: U251 glioblastoma

COc1cc(OC)cc(N2CCN(C(=O)Nc3nc4cc(F)ccc4nc3OC)CC2)c1 was tested, and the GI50 (SK-MEL-28 melanoma) was 120 nM, the TGI (SK-MEL-28 melanoma) was 22300 nM and the GI50 (OVCAR-4 ovarian) was 314 nM. For the same compound, the TGI (OVCAR-4 ovarian) was 31700 nM, the GI50 (HOP-92 NSCLC) was 48.3 nM and the TGI (HOP-92 NSCLC) was 15600 nM. For the same compound, the GI50 (HCT-15 colon) was 22.4 nM, the TGI (HCT-15 colon) was 1180 nM and the GI50 (COLO 205 colon) was 27.7 nM. For the same compound, the TGI (COLO 205 colon) was 84.8 nM, the GI50 (M14 melanoma) was 15.7 nM and the TGI (M14 melanoma) was 38.2 nM. For the same compound, the GI50 (MDA-MB-435 melanoma) was less than 10 nM, the TGI (MDA-MB-435 melanoma) was 21.2 nM and the GI50 (NCI-H226 lung) was 18.6 nM. For the same compound, the TGI (NCI-H226 lung) was 70.8 nM, the GI50 (OVCAR-8 ovarian) was 27.6 nM and the TGI (OVCAR-8 ovarian) was 91.2 nM. The GI50 (NCI-H522 lung) was less than 10 nM, the TGI (NCI-H522 lung) was 22 nM and the GI50 (RXF 393 renal) was less than 10 nM. For the same compound, the TGI (RXF 393 renal) was 21.9 nM, the GI50 (SNB-19 CNS) was 36.3 nM and the TGI (SNB-19 CNS) was 12800 nM. The GI50 (A549 NSCLC) was 38.2 nM, the TGI (A549 NSCLC) was 18500 nM and the GI50 (RPMI-8226 leukemia) was 17 nM. For the same compound, the TGI (RPMI-8226 leukemia) was 31.8 nM, the GI50 (MCF7 breast) was 26.2 nM and the TGI (MCF7 breast) was 5570 nM. The GI50 (IGROV1 ovarian) was 42.5 nM, the TGI (IGROV1 ovarian) was 15000 nM and the GI50 (HS 578T breast) was 17 nM. The TGI (HS 578T breast) was 35.6 nM, the GI50 (UACC-257 melanoma) was 37.2 nM and the TGI (UACC-257 melanoma) was 20100 nM. It also gave a GI50 (TK-10 renal) of 57.1 nM, a TGI (TK-10 renal) of 23100 nM and a GI50 (SW-620 colon) of 36.5 nM. For the same compound, the TGI (SW-620 colon) was 18800 nM, the GI50 (ACHN renal) was 65.7 nM and the TGI (ACHN renal) was 20200 nM. It also gave a GI50 (SK-OV-3 ovarian) of 35.1 nM, a TGI (SK-OV-3 ovarian) of 11700 nM and a GI50 (MOLT-4 leukemia) of 18.2 nM. The TGI (MOLT-4 leukemia) was 32.8 nM, the GI50 (SR leukemia) was less than 10 nM and the GI50 (HCT-116 colon) was 31.2 nM. For the same compound, the TGI (HCT-116 colon) was 151 nM, the GI50 (OVCAR-3 ovarian) was 12.1 nM and the TGI (OVCAR-3 ovarian) was 31.4 nM. The GI50 (NCI/ADR-RES ovarian) was 14 nM, the TGI (NCI/ADR-RES ovarian) was 32.1 nM and the GI50 (EKVX NSCLC) was 27.5 nM. It also gave a TGI (EKVX NSCLC) of 14600 nM, a GI50 (MDA-MB-468 breast) of 16.1 nM and a TGI (MDA-MB-468 breast) of 32.1 nM. It also gave a GI50 (LOX IMVI melanoma) of 39.8 nM, a TGI (LOX IMVI melanoma) of 380 nM and a GI50 (SF-268 CNS) of 30.4 nM. It also gave a TGI (SF-268 CNS) of 415 nM, a GI50 (SK-MEL-5 melanoma) of 13.1 nM and a TGI (SK-MEL-5 melanoma) of 45.3 nM. It also gave a GI50 (NCI-H23 lung) of 20.7 nM, a TGI (NCI-H23 lung) of 55.4 nM and a GI50 (MALME-3M melanoma) of 24.7 nM. It also gave a TGI (MALME-3M melanoma) of 14800 nM, a GI50 (A498 renal) of less than 10 nM and a TGI (A498 renal) of 96.6 nM. For the same compound, the GI50 (BT-549 breast) was 23.7 nM, the TGI (BT-549 breast) was 68.5 nM and the GI50 (NCI-H460 NSCLC) was 21.1 nM. It also gave a TGI (NCI-H460 NSCLC) of 48.7 nM, a GI50 (SNB-75 CNS) of 23.4 nM and a TGI (SNB-75 CNS) of 127 nM. For the same compound, the GI50 (HOP-62 NSCLC) was 21.8 nM, the TGI (HOP-62 NSCLC) was 1700 nM and the GI50 (UACC-62 melanoma) was less than 10 nM. For the same compound, the TGI (UACC-62 melanoma) was 15000 nM, the GI50 ([…]-0 renal) was 28.4 nM and the TGI (786-0 renal) was 267 nM. For the same compound, the GI50 (T-47D breast) was 55.4 nM, the TGI (T-47D breast) was 19600 nM and the GI50 (HL-60(TB) leukemia) was 16.5 nM. The TGI (HL-60(TB) leukemia) was 30.6 nM, the GI50 (SF-539 CNS) was 18.2 nM and the TGI (SF-539 CNS) was 49.5 nM. The GI50 (HCC-2998 colon) was 20.7 nM, the TGI (HCC-2998 colon) was 76.9 nM and the GI50 (PC-3 prostate) was 25.4 nM. It also gave a TGI (PC-3 prostate) of 15200 nM, a GI50 (DU-145 prostate) of 34.7 nM and a TGI (DU-145 prostate) of 249 nM. The GI50 (CCRF-CEM leukemia) was 18.7 nM, the TGI (CCRF-CEM leukemia) was 33.3 nM and the GI50 (NCI-H322M lung) was 64 nM. It also gave a TGI (NCI-H322M lung) of 37600 nM, a GI50 (CAKI-1 renal) of 15.8 nM and a TGI (CAKI-1 renal) of 15100 nM. The GI50 (MDA-MB-231 breast) was 54.5 nM, the TGI (MDA-MB-231 breast) was 84700 nM and the GI50 (SN12C renal) was 28 nM. The TGI (SN12C renal) was 16200 nM, the GI50 (UO-31 renal) was 51.3 nM and the TGI (UO-31 renal) was 18300 nM. For the same compound, the GI50 (K-562 leukemia) was 17.4 nM, the TGI (K-562 leukemia) was 43.3 nM and the GI50 (U251 glioblastoma) was 32.7 nM. For the same compound, the TGI (U251 glioblastoma) was 12100 nM.
